Measurements: patent US10597388B2, “Pyridazinone herbicides” (FMC CORPORATION, priority 2014, dated 2020)

How the values were obtained:
Test in all cases: Test D controlled growth environment herbicide test, pre- and postemergence
Type in all cases: in vivo
kochia (Kochia scoparia) = system: kochia (Kochia scoparia)
Method in brief: (§1)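 Pre-emergence: seeds sown in silt loam soil were sprayed with compound in a non-phytotoxic solvent mix containing surfactant. Post-emergence: plants at 2 to 18 cm (1- to 4-leaf stage) in peat moss/vermiculite medium got the same formulation. Visual 0–100 rating versus controls after 14 to 21 d.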

[1] = system: buckwheat, wild (wild buckwheat, Polygonum convolvulus)
Method in brief: as §1

[2] = system: radish, wild (wild radish, Raphanus raphanistrum)
Method in brief: as §1

[3] = system: field violet (Viola arvensis)
Method in brief: as §1

[4] = system: mustard, wild (wild mustard, Sinapis arvensis)
Method in brief: as §1

[5] = system: windgrass (Apera spica-venti)
Method in brief: as §1

[6] = system: oilseed rape (Brassica napus)
Method in brief: as §1

[7] = system: speedwell (bird's-eye speedwell, Veronica persica)
Method in brief: as §1

[8] = system: bluegrass (annual bluegrass, Poa annua)
Method in brief: as §1

[9] = system: galium (catchweed bedstraw, Galium aparine)
Method in brief: as §1

[10] = system: Russian thistle (Salsola kali)
Method in brief: as §1

[11] = system: pigweed (Amaranthus retroflexus)
Method in brief: as §1

[12] = system: canarygrass (Phalaris minor)
Method in brief: as §1

[13] = Postemergence, 31 g ai/ha, scale 0 to 100 (0 no effect, 100 complete control)
[14] = Postemergence, 125 g ai/ha, visual rating on scale 0 (no effect) to 100 (complete control), 14 to 21 d
[15] = Postemergence, 250 g ai/ha, scale 0 to 100 (0 no effect, 100 complete control)
[16] = Preemergence, 62 g ai/ha, scale 0 to 100 (0 no effect, 100 complete control)
[17] = Preemergence, 125 g ai/ha, scale 0 to 100 (0 no effect, 100 complete control)
[18] = Preemergence, 250 g ai/ha, scale 0 to 100 (0 no effect, 100 complete control)
[19] = postemergence, 62 g ai/ha, scale 0 to 100, 0 no effect, 100 complete control

CCOC(=O)Oc1c(C)nn(C)c(=O)c1-c1c(C)ccc2ccccc12 [Compound 73]
55: Plant response rating, Bluegrass [8, 14]
0: Plant response rating (scale of 0 to 100), Buckwheat, Wild ([1]; Preemergence, 31 g ai/ha) | Plant response rating, Buckwheat, Wild [1, 16] | Plant response rating (scale of 0 to 100), Oilseed Rape ([6]; Preemergence, 31 g ai/ha) | Plant response rating, Oilseed Rape [6, 17]
100: Kochia plant response rating (kochia (Kochia scoparia); [13]) | Plant response rating, Kochia (kochia (Kochia scoparia); [14]) | Plant response rating, Kochia (kochia (Kochia scoparia); [15]) | Plant response rating, Buckwheat, Wild [1, 14] | Plant response rating, Buckwheat, Wild [1, 15] | Plant response rating, Buckwheat, Wild [1, 19] | Plant response rating, Radish, Wild [2, 14] | Plant response rating, Radish, Wild [2, 15] | Plant response rating, Radish, Wild [2, 17] | Plant response rating, Mustard, Wild [4, 14] | Plant response rating, Mustard, Wild [4, 15] | Plant response rating, Mustard, Wild [4, 17] | Plant response rating, Mustard, Wild [4, 18] | Plant response rating, Mustard, Wild [4, 19] | Plant response rating, Speedwell [7, 14] | Plant response rating, Speedwell [7, 15] | Plant response rating (scale of 0 to 100), Speedwell ([7]; Preemergence, 31 g ai/ha) | Plant response rating, Speedwell [7, 16] | Plant response rating, Speedwell [7, 17] | Plant response rating, Speedwell [7, 18] | Plant response rating, Speedwell [7, 19] | Plant response rating, Galium [9, 14] | Plant response rating, Galium [9, 15] | Plant response rating, Galium [9, 19] | Pigweed plant response rating [11, 13] | Plant response rating, Pigweed [11, 14] | Plant response rating, Pigweed [11, 15] | Plant response rating, Pigweed [11, 16] | Plant response rating, Pigweed [11, 17] | Plant response rating, Pigweed [11, 18] | Plant response rating, Pigweed [11, 19] | Plant response rating, Canarygrass [12, 18]
40: Plant response rating (scale of 0 to 100), Windgrass ([5]; Preemergence, 31 g ai/ha) | Plant response rating (scale of 0 to 100), Galium ([9]; Preemergence, 31 g ai/ha) | Plant response rating, Russian Thistle [10, 17]
5: Plant response rating, Oilseed Rape [6, 16]
75: Radish, Wild plant response rating [2, 13] | Plant response rating, Radish, Wild [2, 16] | Plant response rating, Field Violet [3, 16] | Plant response rating, Windgrass [5, 14] | Plant response rating, Oilseed Rape [6, 14] | Russian Thistle plant response rating [10, 13] | Plant response rating, Russian Thistle [10, 18]
65: Plant response rating (scale of 0 to 100), Mustard, Wild ([4]; Preemergence, 31 g ai/ha) | Plant response rating, Windgrass [5, 16] | Oilseed Rape plant response rating [6, 13] | Plant response rating, Bluegrass [8, 15]
70: Windgrass plant response rating [5, 13] | Plant response rating, Windgrass [5, 19] | Plant response rating, Oilseed Rape [6, 18] | Plant response rating, Oilseed Rape [6, 19] | Speedwell plant response rating [7, 13] | Plant response rating (scale of 0 to 100), Pigweed ([11]; Preemergence, 31 g ai/ha) | Plant response rating, Canarygrass [12, 19]
60: Plant response rating, Buckwheat, Wild [1, 17] | Canarygrass plant response rating [12, 13]
25: Plant response rating, Russian Thistle [10, 16]
10: Plant response rating (scale of 0 to 100), Russian Thistle ([10]; Preemergence, 31 g ai/ha)
80: Plant response rating, Kochia (kochia (Kochia scoparia); [19]) | Plant response rating, Field Violet [3, 17] | Plant response rating, Mustard, Wild [4, 16] | Plant response rating, Galium [9, 16] | Plant response rating, Galium [9, 17] | Plant response rating, Russian Thistle [10, 14] | Plant response rating, Russian Thistle [10, 19] | Plant response rating, Canarygrass [12, 14] | Plant response rating (scale of 0 to 100), Canarygrass ([12]; Preemergence, 31 g ai/ha)
95: Plant response rating, Kochia (kochia (Kochia scoparia); [18]) | Buckwheat, Wild plant response rating [1, 13] | Plant response rating, Radish, Wild [2, 19] | Plant response rating, Field Violet [3, 18] | Plant response rating, Field Violet [3, 19] | Plant response rating, Windgrass [5, 18] | Plant response rating, Oilseed Rape [6, 15] | Galium plant response rating [9, 13]
35: Plant response rating (scale of 0 to 100), Field Violet ([3]; Preemergence, 31 g ai/ha) | Plant response rating, Bluegrass [8, 16] | Plant response rating, Bluegrass [8, 17]
90: Plant response rating, Radish, Wild [2, 18] | Field Violet plant response rating [3, 13] | Plant response rating, Field Violet [3, 14] | Plant response rating, Field Violet [3, 15] | Plant response rating, Windgrass [5, 17] | Plant response rating, Galium [9, 18] | Plant response rating, Canarygrass [12, 15] | Plant response rating, Canarygrass [12, 17]
15: Bluegrass plant response rating [8, 13] | Plant response rating (scale of 0 to 100), Bluegrass ([8]; Preemergence, 31 g ai/ha)
85: Plant response rating, Kochia (kochia (Kochia scoparia); [17]) | Mustard, Wild plant response rating [4, 13] | Plant response rating, Windgrass [5, 15] | Plant response rating, Russian Thistle [10, 15] | Plant response rating, Canarygrass [12, 16]
30: Plant response rating (scale of 0 to 100), Kochia (kochia (Kochia scoparia); Preemergence, 31 g ai/ha) | Plant response rating, Kochia (kochia (Kochia scoparia); [16]) | Plant response rating, Buckwheat, Wild [1, 18] | Plant response rating (scale of 0 to 100), Radish, Wild ([2]; Preemergence, 31 g ai/ha) | Plant response rating, Bluegrass [8, 18] | Plant response rating, Bluegrass [8, 19]
